Source: patent publication US7041704B2, “Methods of treating gastrointestinal tract disorders using sodium channel modulators” (Dynogen Pharmaceuticals, Inc., priority 2003, dated 2006)

Experiments:
[1] = target: TTX-R sodium currents in GI tract afferent neurons (Rattus norvegicus, UniProt Q62968); assay: Whole cell patch-clamp, tonic block of TTX-R sodium currents, cumulative concentration-response; format: cell-based; conditions: bath application; four GI tract afferent neurons
Procedure: (§1) Labeling of GI tract afferent neurons: Adult female Sprague-Dawley rats (150–300 g) were deeply anesthetized with pentobarbital anesthesia and placed on isoflurane maintenance anesthesia. A ventral midline incision was made through the abdominal skin and musculature, exposing the GI tract. Five injections of the fluorescent dyes Di-I (5 µl each of 25 mg/ml Di-I in DMSO) or Fast Blue (4% w/v) were made into the wall of the colon to label primary afferent fibers innervating the GI tract. The areas were rinsed with sterile saline to eliminate nonspecific spread of dye, and the incision was closed. […] Labeled neurons were identified in vitro using fluorescence optics. […]
(§2) In most experiments, neurons were incubated in culture medium containing the FITC-labeled lectin BSI-B4 (IB4, […]) at 37° C. for 5 min before recording. The coverslip was washed with extracellular recording solution for 1 min before being placed in a recording chamber mounted on the stage of an inverted microscope equipped with fluorescence optics. […]
(§3) Sodium currents were recorded from DRG neurons using standard electrophysiologic protocols. […] Currents were recorded using a patch-clamp amplifier and digitized at 3–10 kHz for acquisition. Neuronal input resistance and membrane capacitance were determined from the amplitude and kinetics of the current response to a voltage pulse from a holding potential of −50 mV. […]

[2] = tested on: sodium currents in colon DRG neurons; assay: Whole cell patch-clamp, activity-dependent (use-dependent) modulation of sodium currents, slow vs fast stimulation; format: cell-based, rat; conditions: 100 µM lamotrigine; slow (0.2 Hz) vs fast (17 Hz) step depolarizations from −50 to 0 mV; three neurons; P<0.05 vs slow stimulation
Procedure: as §1, §2, §3

TTX-R sodium currents in GI tract afferent neurons, sequence (Q62968 whole entry, looked up): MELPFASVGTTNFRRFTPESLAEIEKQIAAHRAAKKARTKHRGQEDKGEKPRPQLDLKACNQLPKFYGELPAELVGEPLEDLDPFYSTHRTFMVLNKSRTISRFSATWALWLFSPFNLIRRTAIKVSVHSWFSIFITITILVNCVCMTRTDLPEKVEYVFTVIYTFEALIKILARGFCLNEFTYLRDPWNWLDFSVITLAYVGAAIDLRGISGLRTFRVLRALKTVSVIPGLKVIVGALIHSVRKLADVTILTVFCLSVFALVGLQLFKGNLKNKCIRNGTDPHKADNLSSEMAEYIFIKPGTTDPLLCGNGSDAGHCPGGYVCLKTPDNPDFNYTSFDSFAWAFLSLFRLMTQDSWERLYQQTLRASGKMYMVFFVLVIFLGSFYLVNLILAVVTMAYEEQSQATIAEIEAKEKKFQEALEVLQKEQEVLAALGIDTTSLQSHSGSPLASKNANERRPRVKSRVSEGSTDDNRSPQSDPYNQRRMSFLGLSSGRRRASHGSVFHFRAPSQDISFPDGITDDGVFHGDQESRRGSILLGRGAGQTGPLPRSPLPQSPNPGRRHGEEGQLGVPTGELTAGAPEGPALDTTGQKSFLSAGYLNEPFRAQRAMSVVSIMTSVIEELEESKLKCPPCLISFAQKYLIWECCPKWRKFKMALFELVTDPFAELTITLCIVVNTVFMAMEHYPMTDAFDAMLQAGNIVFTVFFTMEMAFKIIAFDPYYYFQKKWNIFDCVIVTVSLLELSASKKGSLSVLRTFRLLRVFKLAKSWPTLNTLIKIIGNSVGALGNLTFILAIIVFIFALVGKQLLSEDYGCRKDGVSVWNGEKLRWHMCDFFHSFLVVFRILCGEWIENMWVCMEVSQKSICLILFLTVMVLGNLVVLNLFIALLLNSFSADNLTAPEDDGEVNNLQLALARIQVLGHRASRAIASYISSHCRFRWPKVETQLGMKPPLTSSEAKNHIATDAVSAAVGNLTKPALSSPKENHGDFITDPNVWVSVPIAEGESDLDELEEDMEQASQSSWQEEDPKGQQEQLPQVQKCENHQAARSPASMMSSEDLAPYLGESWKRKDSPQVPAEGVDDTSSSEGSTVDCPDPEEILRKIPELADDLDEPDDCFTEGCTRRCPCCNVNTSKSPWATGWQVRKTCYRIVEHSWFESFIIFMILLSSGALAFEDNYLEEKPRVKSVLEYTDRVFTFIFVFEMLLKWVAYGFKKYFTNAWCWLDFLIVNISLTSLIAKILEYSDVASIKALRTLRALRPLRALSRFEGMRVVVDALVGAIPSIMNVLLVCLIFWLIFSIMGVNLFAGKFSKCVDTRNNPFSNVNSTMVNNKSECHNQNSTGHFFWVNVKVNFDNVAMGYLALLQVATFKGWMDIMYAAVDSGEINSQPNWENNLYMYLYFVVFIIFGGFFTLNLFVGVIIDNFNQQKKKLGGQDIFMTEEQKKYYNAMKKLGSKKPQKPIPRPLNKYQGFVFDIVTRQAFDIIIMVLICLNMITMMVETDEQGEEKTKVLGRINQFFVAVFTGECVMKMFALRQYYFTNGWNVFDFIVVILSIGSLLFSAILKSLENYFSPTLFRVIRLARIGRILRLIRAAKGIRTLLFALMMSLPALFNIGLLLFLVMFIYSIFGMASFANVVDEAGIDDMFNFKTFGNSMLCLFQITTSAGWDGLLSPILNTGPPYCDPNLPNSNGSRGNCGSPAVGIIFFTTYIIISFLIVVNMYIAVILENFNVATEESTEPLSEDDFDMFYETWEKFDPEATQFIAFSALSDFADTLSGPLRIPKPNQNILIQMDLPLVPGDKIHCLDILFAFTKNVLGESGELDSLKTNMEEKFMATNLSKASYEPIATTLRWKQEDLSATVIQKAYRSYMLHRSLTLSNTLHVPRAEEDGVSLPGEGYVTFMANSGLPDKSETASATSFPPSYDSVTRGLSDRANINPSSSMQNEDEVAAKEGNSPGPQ

SMILES | block of TTX-R sodium currents (in words) [1] | mean peak sodium current amplitude (mean % control amplitude) [2]
Nc1c(Br)cc(Br)cc1CNC1CCC(O)CC1 (centres unmarked) [Ambroxol] | concentration-dependent reversible block | –
Nc1nnc(-c2cccc(Cl)c2Cl)c(N)n1 [lamotrigine, 6-(2,3-Dichlorophenyl)-1,2,4-triazine-3,5-diamine] | – | decreased to a greater extent under fast stimulation conditions
